Assay results published in patent US20100298285A1, “Biclycloheteroaryl Compounds as P2x7 Modulators and Uses Thereof” (priority 2006, published 2010).

system: IL-1β release, THP-1 cells; experiment: IL-1β release assay in differentiated THP-1 cells stimulated with BzATP (Example 9); assay type: cell-based; settings: Homo sapiens; 0.1 μM compound ("*" symbols); differentiated THP-1 cells, 250 uM BzATP; read-out: IL-1β% Inhib. @ 0.3 or 0.1 μM
Procedure: THP-1 cells (ATCC Cat # 285-IF-100) are plated in 96 well plates at a concentration of 200,000 cells per well and allowed to differentiate in RPMI-1640 media (ATCC Cat # 30-2001) containing 10% FBS, 100 IU/mL penicillin, 100 ug/mL streptomycin, 100 ng/mL LPS and 100 ng/mL IFN-γ for 16 hours. Following differentiation, the cells are treated for an additional 2 hours in RPMI-1640 media containing 100 IU/mL penicillin, 100 ug/mL streptomycin and fresh LPS at 100 ng/mL. The cells are then pretreated for 30 minutes with the compound of interest at the appropriate concentration in RPMI media containing 100 IU/mL penicillin, 100 ug/mL streptomycin. Following the pretreatment 2′,3′-O-(4-benzoylbenzoyl)-adenosine 5′-triphosphate (Sigma Aldrich Cat # B6396) is added to a final concentration of 250 uM and the cells are incubated for an additional 45 minutes. 30 uL of cell supernatant is then collected and IL-1β levels determined via ELISA (R&D systems Cat. # HSLB50) according to manufacturer's recommendations using the Tecan Safire plate reader. Background adjusted IL-1β levels of drug treated and non-treated cells are used to calculate the percent inhibition.
The following compounds have been or can be prepared according to the synthetic methods described above. For the purpose of Table 1 below, activity of each compound, which can be determined using the IL-1β assay method described in Example 9, is expressed as follows: […]
The compounds set forth in Table 1 were tested for activity in a cellular model as described herein. Specifically, cells were pretreated with differing amounts of the compound under test and released IL-1β determined as in Example 9, above. Measurements were made and IC50 values, presented in Table 2, below, were determined by fitting the data to a four parameter logistic equation using GraphPad Prism software (GraphPad Software, Inc). The equation may be expressed by the following formula:
Y=Bottom+(Top−Bottom)/(1+10̂((Log EC50−X)*HillSlope))
Where X is the logarithm of concentration, Y is the response and Y starts at Bottom and goes to Top with a sigmoid shape.

Row | Structure (SMILES) | inhibition at 0.1 µM [%]
1 | N#Cc1cccc(S(=O)(=O)N2CCc3c(ccc(Cl)c3NC(=O)Cc3ccc(C(F)(F)F)cc3)C2)c1 [Compound 3028] | 0 to 25
2 | O=C(Cc1ccc(C(F)(F)F)cc1)Nc1c(Cl)ccc2c1CCN(S(=O)(=O)c1ccccc1F)C2 [Compound 3002] | 0 to 25
3 | O=C(Cc1ccc(C(F)(F)F)cc1)Nc1c(Cl)ccc2c1CCN(S(=O)(=O)c1ccc(C(F)(F)F)cc1)C2 [Compound 3033] | 0 to 25
4 | O=C(Cc1ccc(C(F)(F)F)cc1)Nc1c(Cl)ccc2c1CCN(S(=O)(=O)c1ccc(Cl)cc1)C2 [Compound 3013] | 0 to 25
5 | O=C(Cc1ccc(C(F)(F)F)cc1)Nc1c(Cl)ccc2c1CCN(S(=O)(=O)c1cccc(Cl)c1F)C2 [Compound 3019] | 0 to 25
6 | O=C(Cc1ccc(C(F)(F)F)cc1)Nc1c(Cl)ccc2c1CCN(S(=O)(=O)c1ccc(F)cc1)C2 [Compound 3004] | 0 to 25

same assay, conditions: Homo sapiens; 0.3 μM compound ("+" symbols); differentiated THP-1 cells, 250 uM BzATP; read-out: IL-1β% Inhib. @ 0.3 or 0.1 μM

Row | Structure (SMILES) | inhibition at 0.3 µM [%]
7 | O=C(Cc1cccc(C(F)(F)F)c1F)Nc1c(Cl)ccc2c1CCN(C(=O)c1cccc(Cl)c1Cl)C2 [Compound 3179] | 26 to 50
8 | CCCc1ccc(C(=O)N2CCc3c(ccc(Cl)c3NC(=O)Cc3ccc(C(F)(F)F)c(F)c3)C2)cc1 [Compound 3084] | 0 to 25
9 | O=C(Cc1cccc(C(F)(F)F)c1F)Nc1c(Cl)ccc2c1CCN(C(=O)c1ccncc1)C2 [Compound 3190] | 0 to 25
10 | O=C(Cc1cccc(C(F)(F)F)c1F)Nc1c(Cl)ccc2c1CCN(C(=O)c1cc(F)ccc1F)C2 [Compound 3177] | 0 to 25
11 | O=C(Cc1ccc(C(F)(F)F)c(F)c1)Nc1c(Cl)ccc2c1CCN(C(=O)c1cc(F)c(F)cc1F)C2 [Compound 3078] | 0 to 25
12 | Cc1ccc2c(c1NC(=O)Cc1cccc(C(F)(F)F)c1F)CCN(C(=O)[C@H]1CCCN1)C2 [Compound 3062] | ≥ 76
13 | O=C(Cc1ccc(C(F)(F)F)c(F)c1)Nc1c(Cl)ccc2c1CCN(C(=O)c1cccnc1)C2 [Compound 3079] | 0 to 25
14 | Cc1cc(C(=O)N2CCc3c(ccc(Cl)c3NC(=O)Cc3ccc(C(F)(F)F)c(F)c3)C2)no1 [Compound 3116] | 0 to 25
15 | Cc1ccc(C)c(S(=O)(=O)N2CCc3c(ccc(Cl)c3NC(=O)Cc3ccc(C(F)(F)F)cc3)C2)c1 [Compound 3025] | ≥ 76
16 | CC(C)C(=O)N1CCc2c(ccc(Cl)c2NC(=O)Cc2cccc(C(F)(F)F)c2F)C1 [Compound 3150] | 0 to 25
17 | O=C(Cc1ccc(C(F)(F)F)c(F)c1)Nc1c(Cl)ccc2c1CCN(C(=O)C1CC1c1ccccc1)C2 (stereo not shown) [Compound 3099] | 0 to 25
18 | Cc1nn(-c2ccccc2)nc1C(=O)N1CCc2c(ccc(Cl)c2NC(=O)Cc2ccc(C(F)(F)F)c(F)c2)C1 [Compound 3108] | 0 to 25
19 | O=C(Cc1cccc(C(F)(F)F)c1F)Nc1c(Cl)ccc2c1CCN(C(=O)c1cc(F)c(F)cc1F)C2 [Compound 3143] | 0 to 25
20 | O=C(Cc1cccc(C(F)(F)F)c1F)Nc1c(Cl)ccc2c1CCN(C(=O)c1cc(Cl)cc(Cl)c1)C2 [Compound 3195] | 0 to 25
21 | CCCC(=O)N1CCc2c(ccc(Cl)c2NC(=O)Cc2cccc(C(F)(F)F)c2F)C1 [Compound 3187] | 0 to 25
22 | COCC(=O)N1CCc2c(ccc(Cl)c2NC(=O)Cc2cccc(C(F)(F)F)c2F)C1 [Compound 3145] | 51 to 75
23 | CC(=O)N1CCC(C(=O)N2CCc3c(ccc(Cl)c3NC(=O)Cc3ccc(C(F)(F)F)c(F)c3)C2)CC1 [Compound 3122] | 0 to 25
24 | O=C(Cc1ccc(C(F)(F)F)c(F)c1)Nc1c(Cl)ccc2c1CCN(C(=O)c1ccc3ccccc3n1)C2 [Compound 3125] | 26 to 50
25 | CC(C)(C)OC(=O)NC(Cc1ccccc1)C(=O)N1CCc2c(cccc2NC(=O)Cc2ccc(C(F)(F)F)c(F)c2)C1 (stereo not shown) [Compound 3045] | 26 to 50
26 | O=C(Cc1ccc(C(F)(F)F)c(F)c1)Nc1c(Cl)ccc2c1CCN(C(=O)c1ccccc1F)C2 [Compound 3114] | 0 to 25
27 | CCC(=O)N1CCc2c(ccc(Cl)c2NC(=O)Cc2cccc(C(F)(F)F)c2F)C1 [Compound 3138] | 0 to 25

Row | Structure (SMILES) | inhibition at 0.3 µM [%]
28 | O=C(Cc1ccc(C(F)(F)F)c(F)c1)Nc1c(Cl)ccc2c1CCN(C(=O)c1ccc(C(F)(F)F)nc1)C2 [Compound 3132] | 0 to 25
29 | CCCc1ccc(C(=O)N2CCc3c(ccc(Cl)c3NC(=O)Cc3cccc(C(F)(F)F)c3F)C2)cc1 [Compound 3146] | 26 to 50
30 | Cc1cc(C(=O)N2CCc3c(ccc(Cl)c3NC(=O)Cc3cccc(C(F)(F)F)c3F)C2)no1 [Compound 3180] | 0 to 25
31 | O=C(Cc1ccc(C(F)(F)F)c(F)c1)Nc1c(Cl)ccc2c1CCN(C(=O)c1ccc(F)cc1)C2 [Compound 3091] | 0 to 25
32 | O=C(Cc1ccc(C(F)(F)F)c(F)c1)Nc1cccc2c1CCN(C(=O)CC1CCCCC1)C2 [Compound 3042] | ≥ 76
33 | COc1cc(OC)cc(C(=O)N2CCc3c(ccc(Cl)c3NC(=O)Cc3ccc(C(F)(F)F)c(F)c3)C2)c1 [Compound 3087] | 0 to 25
34 | O=C(Cc1ccc(C(F)(F)F)c(F)c1)Nc1c(Cl)ccc2c1CCN(C(=O)c1ccccc1C(F)(F)F)C2 [Compound 3106] | 26 to 50
35 | COc1ccc(C(=O)N2CCc3c(ccc(Cl)c3NC(=O)Cc3ccc(C(F)(F)F)c(F)c3)C2)cc1OC [Compound 3129] | 0 to 25
36 | Cc1ccc2c(c1NC(=O)Cc1ccc(C(F)(F)F)cc1)CCN(C(=O)[C@H]1CCCN1)C2 [Compound 3060, N-[6-Methyl-2-((R)-pyrrolidine-2-carbonyl)-1,2,3,4-tetrahydro-isoquinolin-5-yl]-2-(4-trifluoromethyl-phenyl)-acetamide] | ≥ 76
37 | COc1cccc(C(=O)N2CCc3c(ccc(Cl)c3NC(=O)Cc3ccc(C(F)(F)F)c(F)c3)C2)c1 [Compound 3090] | 0 to 25
38 | COc1cc(OC)cc(C(=O)N2CCc3c(ccc(Cl)c3NC(=O)Cc3cccc(C(F)(F)F)c3F)C2)c1 [Compound 3149] | 26 to 50
39 | COc1ccc(C(=O)N2CCc3c(ccc(Cl)c3NC(=O)Cc3ccc(C(F)(F)F)c(F)c3)C2)cc1 [Compound 3076] | 0 to 25
40 | CC(=O)N1CCc2c(ccc(Cl)c2NC(=O)Cc2ccc(C(F)(F)F)c(F)c2)C1 [Compound 3069] | 0 to 25
41 | O=C(Cc1ccc(C(F)(F)F)c(F)c1)Nc1c(Cl)ccc2c1CCN(C(=O)c1ccc(Cl)cc1Cl)C2 [Compound 3100] | 0 to 25
42 | O=C(Cc1cccc(C(F)(F)F)c1F)Nc1c(Cl)ccc2c1CCN(C(=O)c1ccccc1)C2 [Compound 3137] | 0 to 25
43 | O=C(Cc1ccc(C(F)(F)F)c(F)c1)Nc1c(Cl)ccc2c1CCN(C(=O)c1cccc(Cl)c1)C2 [Compound 3093] | 0 to 25
44 | CCCC(O)CN1CCc2c(cccc2NC(=O)Cc2ccc(C(F)(F)F)c(F)c2)C1 (stereo not shown) [Compound 3063] | 26 to 50
45 | Cc1ncccc1C(=O)N1CCc2c(cccc2NC(=O)Cc2ccc(C(F)(F)F)c(F)c2)C1 [Compound 3044] | 0 to 25
46 | O=C(Cc1cccc(C(F)(F)F)c1F)Nc1c(Cl)ccc2c1CCN(C(=O)c1ccccc1C(F)(F)F)C2 [Compound 3170] | 0 to 25
47 | O=C(Cc1ccc(C(F)(F)F)c(F)c1)Nc1c(Cl)ccc2c1CCN(C(=O)c1ccc(Cl)c(Cl)c1)C2 [Compound 3086] | 0 to 25

same assay, conditions: Homo sapiens; THP-1 cells, BzATP 250 uM, four parameter logistic fit

Row | IC50 [nM] | Structure (SMILES)
48 | 27.9 | COc1ccc(OC)c(S(=O)(=O)N2CCc3c(ccc(C)c3NC(=O)Cc3ccc(C(F)(F)F)c(F)c3)C2)c1 [Compound 3452]
49 | 76.7 | Cc1ccc2c(c1NC(=O)Cc1cccc(C(F)(F)F)c1F)CCN(C(=O)[C@H]1CCCN1)C2 [Compound 3062]
50 | 84 | Cc1ccc(C)c(S(=O)(=O)N2CCc3c(ccc(Cl)c3NC(=O)Cc3ccc(C(F)(F)F)cc3)C2)c1 [Compound 3025]
51 | 926 | COc1ccc2c(c1NC(=O)Cc1ccc(C(F)(F)F)c(F)c1)CCN(C(=O)C(C)(C)O)C2 [Compound 3481]
52 | 34.8 | O=C(Cc1cccc(C(F)(F)F)c1F)Nc1c(Cl)ccc2c1CCN(S(=O)(=O)C1CC1)C2 [Compound 3313]
53 | 385 | CC(C)(C)OC(=O)NC(Cc1ccccc1)C(=O)N1CCc2c(cccc2NC(=O)Cc2ccc(C(F)(F)F)c(F)c2)C1 (stereo not shown) [Compound 3045]
54 | 261 | Cc1ccc2c(c1NC(=O)Cc1ccc(C(F)(F)F)c(F)c1)CCN(C(=O)C1(C)CC1)C2 [Compound 3471]
55 | 107 | Cc1ccc2c(c1NC(=O)Cc1ccc(C(F)(F)F)c(F)c1)CCN(S(=O)(=O)CC(F)(F)F)C2 [Compound 3406]
56 | 153 | O=C(Cc1ccc(C(F)(F)F)c(F)c1)Nc1cccc2c1CCN(C(=O)CC1CCCCC1)C2 [Compound 3042]
57 | 64.4 | Cc1ccc2c(c1NC(=O)Cc1ccc(C(F)(F)F)cc1)CCN(C(=O)[C@H]1CCCN1)C2 [Compound 3060, N-[6-Methyl-2-((R)-pyrrolidine-2-carbonyl)-1,2,3,4-tetrahydro-isoquinolin-5-yl]-2-(4-trifluoromethyl-phenyl)-acetamide]
58 | 71.1 | CC(C)S(=O)(=O)N1CCc2c(ccc(Cl)c2NC(=O)Cc2ccc(C(F)(F)F)c(F)c2)C1 [Compound 3304]
59 | 25.5 | Cc1ccc2c(c1NC(=O)Cc1ccc(C(F)(F)F)c(F)c1)CCN(C(=O)C(C)(C)C)C2 [Compound 3220]
60 | 673 | CCCC(O)CN1CCc2c(cccc2NC(=O)Cc2ccc(C(F)(F)F)c(F)c2)C1 (stereo not shown) [Compound 3063]
61 | > 1000 | Cc1ncccc1C(=O)N1CCc2c(cccc2NC(=O)Cc2ccc(C(F)(F)F)c(F)c2)C1 [Compound 3044]
